Results: US9932637B2, “Genetic polymorphisms associated with cardiovascular disorders and drug response, methods of detection and uses thereof” (CELERA CORPORATION, priority 2003, dated 2018)
Where “and” joins values, the source holds several entries; their conditions need not be identical. Equal values may be shown once.

Test system: patients with prior myocardial infarction (CARE study)
Assay: CARE aligned analysis (prospective and case/control design, white males): association of genotypes with pravastatin efficacy (Tables 13, 15)
Type: in vivo, human
Method: The data presented in Table 8 based on an association of genotypes with pravastatin efficacy of the CARE samples were further analyzed and presented in Table 13. The further analysis was performed to align the data obtained from the analysis of the CARE samples, which was a prospective study, to the analysis of the WOSCOP samples, which was a case/control study. Table 13 also presents an analysis of the association of genotypes with pravastatin efficacy in the WOSCOPs samples. Relative to the analysis performed on the data presented in Table 8, there are two significant differences to determine if the SNP influenced pravastatin efficacy. Data obtained from the CARE samples were separated by study design into two groups, those in the prospective study design group and those in the case/control study design group. The original care study contained 16 protocol defined cardiovascular disease defined endpoints and 150 other phenotypes. […] The control groups used to compare the data were also divided into two groups, the “all possible” control group and the “cleaner” control group. […] Because the participants in the WOSCOPs trial were all white males, only data obtained from white males in the CARE study were analysed. Data from the “all possible” and “cleaner” controls were compared to data obtained from the cases in the prospective study design while only data from “cleaner” controls were compared to cases in the case/control study design. The data from the case/control cohorts were analysed using conditional logistic regression (as opposed to logistic regression used for the original anaylsis).
The anaylsis was refined as described for both Tables 13 and 14.

[1] = A2M hCV517658, CARE Case/Control, F&NF MI
[2] = ABCA1 hCV2741051, CARE Case/Control, F&NF MI
[3] = ABCA1 hCV2741051, CARE Prospective, F&NF MI
[4] = ABCA1 hCV2741083, CARE Prospective, F&NF MI
[5] = ADAM12 hCV25928135, CARE Case/Control, F&NF MI
[6] = AGTR1 hCV3187716, CARE, Case/Control, F MI/SD/NF MI
[7] = AGTR1 hCV3187716, CARE, Prospective, F MI/SD/NF MI
[8] = ALOX12 hCV1552894, CARE Prospective, F&NF MI
[9] = ALOX12 hCV1552900, CARE Prospective, F&NF MI
[10] = ASAH1 hCV2442143, CARE, Prospective, F MI/SD/NF MI
[11] = C14orf159 hCV25472345, CARE Case/Control, F&NF MI
[12] = C14orf159 hCV25472345, CARE Prospective, F&NF MI
[13] = CAPG hCV15851292, CARE, Case/Control, F MI/SD/NF MI
[14] = CAPN10 hCV25614016, CARE, Case/Control, F MI/SD/NF MI, listed as Pravastatin
[15] = CAPN10 hCV25614016, CARE, Prospective, F MI/SD/NF MI

With `CC[C@H](C)C(=O)O[C@H]1C[C@H](O)C=C2C=C[C@H](C)[C@H](CC[C@@H](O)C[C@@H](O)CC(=O)O)[C@H]21` [pravastatin] the “2 Rare Alleles (%), Pravastatin Patients” value [1] was “(7.6%)”, the “2 Rare Alleles n/total, Pravastatin Patients” value [1] was 11/144 and 11/101 and the “Pravastatin vs placebo odds ratio, 0 rare alleles” value [1] was 0.55 and 0.53. The “Pravastatin vs placebo odds ratio, 1 rare allele” value [1] was 1.04 and 0.93, the “Pravastatin vs placebo odds ratio, 2 rare alleles” value [1] was 0.47 and 0.38 and the “2 Rare Alleles n/total, Pravastatin Patients” value [2] was 12/93 and 12/64. The “Pravastatin vs placebo odds ratio, 0 rare alleles” value [2] was 0.55 and 0.52, the “Pravastatin vs placebo odds ratio, 1 rare allele” value [2] was 0.98 and 0.82 and the “Pravastatin vs placebo odds ratio, 2 rare alleles” value [2] was 1.71 and 1.81. The “2 Rare Alleles n/total, Pravastatin Patients” value [3] was 12/94 and 12/65, the “Pravastatin vs placebo odds ratio, 0 rare alleles” value [3] was 0.55 and 0.52 and the “Pravastatin vs placebo odds ratio, 1 rare allele” value [3] was 0.99 and 0.83. For the same compound, the “Pravastatin vs placebo odds ratio, 2 rare alleles” value [3] was 1.80 and 1.81, the “2 Rare Alleles n/total, Pravastatin Patients” value (ABCA1 hCV2741083, CARE Case/Control, F&NF MI) was 4/22 and 4/18 and the “2 Rare Alleles n/total, Pravastatin Patients” value [4] was 4/23 and 4/19. For the same compound, the “Pravastatin vs placebo odds ratio, 0 rare alleles” value [4] was 0.63, the “Pravastatin vs placebo odds ratio, 1 rare allele” value [4] was 1.52 and the “Pravastatin vs placebo odds ratio, 2 rare alleles” value [4] was 2.74. The “Pravastatin vs. Placebo Odds Ratio” value (ABCA1 hCV2741083, Patients with 0 Rare Alleles, CARE Case/Control, F MI/SD/NF MI) was 0.60, the “Pravastatin vs. Placebo Odds Ratio” value (ABCA1 hCV2741083, Patients with 0 Rare Alleles, CARE Prospective, F MI/SD/NF MI) was 0.59 and the “Pravastatin vs. Placebo Odds Ratio” value (ABCA1 hCV2741083, Patients with 1 Rare Allele, CARE Case/Control, F MI/SD/NF MI) was 1.53. The “Pravastatin vs. Placebo Odds Ratio” value (ABCA1 hCV2741083, Patients with 1 Rare Allele, CARE Prospective, F MI/SD/NF MI) was 1.61, the “Pravastatin vs. Placebo Odds Ratio” value (ABCA1 hCV2741083, Patients with 2 Rare Alleles, CARE Case/Control, F MI/SD/NF MI) was 0.71 and the “Pravastatin vs. Placebo Odds Ratio” value (ABCA1 hCV2741083, Patients with 2 Rare Alleles, CARE Prospective, F MI/SD/NF MI) was 0.53. For the same compound, the “2 Rare Alleles (%), Pravastatin Patients” value [5] was “(17.1%)”, the “2 Rare Alleles n/total, Pravastatin Patients” value [5] was 7/58 and 7/41 and the “Pravastatin vs placebo odds ratio, 2 rare alleles” value [5] was 0.47 and 0.37. The “Pravastatin vs. Placebo Odds Ratio” value (ADAMTS1 hCV529706, Patients with 0 Rare Alleles, CARE Case/Control, F MI/SD/NF MI) was 0.91, the “Pravastatin vs. Placebo Odds Ratio” value (ADAMTS1 hCV529706, Patients with 1 Rare Allele, CARE Case/Control, F MI/SD/NF MI) was 0.64 and the “Pravastatin vs. Placebo Odds Ratio” value (ADAMTS1 hCV529706, Patients with 2 Rare Alleles, CARE Case/Control, F MI/SD/NF MI) was 0.20. The “Pravastatin vs. Placebo Odds Ratio” value (ADAMTS1 hCV529710, Patients with 0 Rare Alleles, CARE Case/Control, F MI/SD/NF MI) was 0.91, the “Pravastatin vs. Placebo Odds Ratio” value (ADAMTS1 hCV529710, Patients with 1 Rare Allele, CARE Case/Control, F MI/SD/NF MI) was 0.63 and the “Pravastatin vs. Placebo Odds Ratio” value (ADAMTS1 hCV529710, Patients with 2 Rare Alleles, CARE Case/Control, F MI/SD/NF MI) was 0.20. For the same compound, the “2 rare alleles n/total (%), pravastatin patients” value (“2 rare alleles n/total (%)” for short) [6] was “(7.5%)”, the “Pravastatin vs placebo odds ratio, 0 rare alleles” value [6] was 0.65 and the “Pravastatin vs placebo odds ratio, 1 rare allele” value [6] was 1.03. The “Pravastatin vs placebo odds ratio, 2 rare alleles” value [6] was 0.26, the “2 rare alleles n/total (%)” value [7] was “(7.2%)” and the “Pravastatin vs placebo odds ratio, 0 rare alleles” value [7] was 0.65. For the same compound, the “Pravastatin vs placebo odds ratio, 1 rare allele” value [7] was 1.02, the “Pravastatin vs placebo odds ratio, 2 rare alleles” value [7] was 0.23 and the “Pravastatin vs. Placebo Odds Ratio” value (AGTR1 hCV3187716, Patients with 0 Rare Alleles, CARE Prospective, F MI/SD/NF MI) was 0.70. The “Pravastatin vs. Placebo Odds Ratio” value (AGTR1 hCV3187716, Patients with 1 Rare Allele, CARE Prospective, F MI/SD/NF MI) was 1.18, the “Pravastatin vs. Placebo Odds Ratio” value (AGTR1 hCV3187716, Patients with 2 Rare Alleles, CARE Prospective, F MI/SD/NF MI) was 0.27 and the “2 Rare Alleles (%), Pravastatin Patients” value [8] was “(7.6%)”. For the same compound, the “2 Rare Alleles n/total, Pravastatin Patients” value [8] was 15/198, the “Pravastatin vs placebo odds ratio, 2 rare alleles” value [8] was 0.38 and the “2 Rare Alleles (%), Pravastatin Patients” value [9] was “(7.6%)”. The “2 Rare Alleles n/total, Pravastatin Patients” value [9] was 15/198, the “Pravastatin vs placebo odds ratio, 2 rare alleles” value [9] was 0.38 and the “2 rare alleles n/total (%)” value [10] was “(13.2%)”. The “Pravastatin vs placebo odds ratio, 0 rare alleles” value [10] was 0.42, the “Pravastatin vs placebo odds ratio, 1 rare allele” value [10] was 0.78 and the “Pravastatin vs placebo odds ratio, 2 rare alleles” value [10] was 1.16. The “2 Rare Alleles (%), Pravastatin Patients” value [11] was “(5.0%)”, the “2 Rare Alleles n/total, Pravastatin Patients” value [11] was 7/140 and the “Pravastatin vs placebo odds ratio, 2 rare alleles” value [11] was 0.30. The “2 Rare Alleles (%), Pravastatin Patients” value [12] was “(5.0%)”, the “2 Rare Alleles n/total, Pravastatin Patients” value [12] was 7/140 and the “Pravastatin vs placebo odds ratio, 2 rare alleles” value [12] was 0.30. For the same compound, the “2 rare alleles n/total (%)” value [13] was “(21.4%)”, the “Pravastatin vs placebo odds ratio, 0 rare alleles” value [13] was 0.81 and the “Pravastatin vs placebo odds ratio, 1 rare allele” value [13] was 0.37. The “Pravastatin vs placebo odds ratio, 2 rare alleles” value [13] was 5.35, the “Pravastatin vs placebo odds ratio, 2 rare alleles” value (CAPN10 hCV25614016, CARE, Case/Control, F MI/SD/NF MI) was 0.90 and the “Pravastatin vs placebo odds ratio, 0 rare alleles” value [14] was 0.62 and 0.56. The “Pravastatin vs placebo odds ratio, 1 rare allele” value [14] was 1.58 and 1.43, the “Pravastatin vs placebo odds ratio, 2 rare alleles” value [14] was 1.07 and the “2 rare alleles n/total (%)” value [15] was “(9.1%)”. For the same compound, the “Pravastatin vs placebo odds ratio, 0 rare alleles” value [15] was 0.63 and 0.56 and the “Pravastatin vs placebo odds ratio, 1 rare allele” value [15] was 1.60 and 1.42.
